Measured values taken from PMC7402526, “An in vitro quantitative systems pharmacology approach for deconvolving mechanisms of drug-induced, multilineage cytopenias” (PLoS Computational Biology, 2020).

Key:
monocytes (monocyte-lin) = experiment: MLTA, Mono: concentration-response and QSP model fit; type: cell-based, human; conditions: Homo sapiens, Monocyte, 144 h
In short: (§1)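 Freeze-thawed primary human bone marrow CD34+ cells were cultured 6 days in SFEM II with a cytokine cocktail, drug added on day 0. Subsets were counted by 17-parameter flow cytometry with TruCount beads and normalized to vehicle wells. An Emax QSP model (Emax 0–2, L1 regularization) was fitted to these counts.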

granulocytes (Gran-lin) = experiment: MLTA, Gran: concentration-response and QSP model fit; type: cell-based, human; conditions: Homo sapiens, 144 h
In short: as §1

B cells (B-lin) = experiment: MLTA, B-lin: concentration-response and QSP model fit; type: cell-based, human; conditions: Homo sapiens, B-cell, 144 h
In short: as §1

[1] = system: lymphocyte progenitors (LymP); experiment: MLTA, LymP: concentration-response and QSP model fit; type: cell-based, human; conditions: Homo sapiens, Lymphocyte, 144 h
In short: as §1

[2] = system: monocyte progenitors (monocyte prog); experiment: MLTA, MonoP: concentration-response and QSP model fit; type: cell-based, human; conditions: Homo sapiens, Monocyte, 144 h
In short: as §1

[3] = system: granulocyte-macrophage progenitor (GMPs); experiment: MLTA, GMPs: concentration-response and QSP model fit; type: cell-based, human; conditions: Homo sapiens, 144 h
In short: as §1

[4] = system: total viable cells (totalViableCells); experiment: MLTA, total live cells concentration-response; type: cell-based; conditions: Homo sapiens, 144 h, 6 days, normalized to vehicle control, read-out: total_live normalized cell count
In short: (§2)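 Freeze-thawed primary human bone marrow CD34+ cells in SFEM II with cytokine cocktail, drug added day 0, 6 days at 37°C, 5% CO2. Live/dead counts by 17-parameter flow cytometry with DAPI exclusion, bead-normalized, volume-corrected to cells/mL. Normalized per donor to mean of six vehicle wells; 2–7 donors pooled.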

[5] = system: total dead cells (totalDeadCells); experiment: MLTA, total dead cells concentration-response; type: cell-based; conditions: Homo sapiens, 144 h, 6 days, normalized to vehicle control, read-out: total_dead normalized cell count
In short: as §2

[6] = QSP model fit of 6-day MLTA data

CCN1CCN(Cc2ccc(Nc3ncc(F)c(-c4cc(F)c5nc(C)n(C(C)C)c5c4)n3)nc2)CC1 [abemaciclib]
EC50 (monocytes (monocyte-lin); [6]): 46.2 nM
activity at 0.0002 µM (monocytes (monocyte-lin); dose 0.2 nM, 6 days, normalized to vehicle control, read-out: Mon normalized cell count): 92.9%
activity at 0.001 µM (monocytes (monocyte-lin); dose 1 nM, 6 days, normalized to vehicle control, read-out: Mon normalized cell count): 109%
activity at 0.005 µM (monocytes (monocyte-lin); dose 5 nM, 6 days, normalized to vehicle control, read-out: Mon normalized cell count): 87%
activity at 0.025 µM (monocytes (monocyte-lin); dose 25 nM, 6 days, normalized to vehicle control, read-out: Mon normalized cell count): 41.8%
activity at 0.1 µM (monocytes (monocyte-lin); dose 100 nM, 6 days, normalized to vehicle control, read-out: Mon normalized cell count): 10.9%
activity at 0.5 µM (monocytes (monocyte-lin); dose 500 nM, 6 days, normalized to vehicle control, read-out: Mon normalized cell count): 3.74%
activity at 2.5 µM (monocytes (monocyte-lin); dose 2500 nM, 6 days, normalized to vehicle control, read-out: Mon normalized cell count): 0.588%
Emax (monocytes (monocyte-lin); parameter from QSP model fitting, read-out: Emax_drug_Mono): 23.1%
activity at 0.0002 µM (granulocytes (Gran-lin); dose 0.2 nM, 6 days, normalized to vehicle control, read-out: Gran normalized cell count): 101%
activity at 0.001 µM (granulocytes (Gran-lin); dose 1 nM, 6 days, normalized to vehicle control, read-out: Gran normalized cell count): 107%
activity at 0.005 µM (granulocytes (Gran-lin); dose 5 nM, 6 days, normalized to vehicle control, read-out: Gran normalized cell count): 91.3%
activity at 0.025 µM (granulocytes (Gran-lin); dose 25 nM, 6 days, normalized to vehicle control, read-out: Gran normalized cell count): 34.6%
activity at 0.1 µM (granulocytes (Gran-lin); dose 100 nM, 6 days, normalized to vehicle control, read-out: Gran normalized cell count): 9.12%
activity at 0.5 µM (granulocytes (Gran-lin); dose 500 nM, 6 days, normalized to vehicle control, read-out: Gran normalized cell count): 1.99%
activity at 2.5 µM (granulocytes (Gran-lin); dose 2500 nM, 6 days, normalized to vehicle control, read-out: Gran normalized cell count): 0.0882%
Emax (granulocytes (Gran-lin); parameter from QSP model fitting, read-out: Emax_drug_Gran): 0.16%
EC50 (B cells (B-lin); [6]): 69.2 nM
activity at 0.0002 µM (B cells (B-lin); dose 0.2 nM, 6 days, normalized to vehicle control, read-out: B-lin normalized cell count): 83.9%
activity at 0.001 µM (B cells (B-lin); dose 1 nM, 6 days, normalized to vehicle control, read-out: B-lin normalized cell count): 104%
activity at 0.005 µM (B cells (B-lin); dose 5 nM, 6 days, normalized to vehicle control, read-out: B-lin normalized cell count): 83.9%
activity at 0.025 µM (B cells (B-lin); dose 25 nM, 6 days, normalized to vehicle control, read-out: B-lin normalized cell count): 50.8%
activity at 0.1 µM (B cells (B-lin); dose 100 nM, 6 days, normalized to vehicle control, read-out: B-lin normalized cell count): 23.5%
activity at 0.5 µM (B cells (B-lin); dose 500 nM, 6 days, normalized to vehicle control, read-out: B-lin normalized cell count): 4.07%
activity at 2.5 µM (B cells (B-lin); dose 2500 nM, 6 days, normalized to vehicle control, read-out: B-lin normalized cell count): 0.0736%
Emax (B cells (B-lin); parameter from QSP model fitting, read-out: Emax_drug_B): 64.9%
activity at 0.0002 µM ([1]; dose 0.2 nM, 6 days, normalized to vehicle control, read-out: LymP normalized cell count): 93.5%
activity at 0.001 µM ([1]; dose 1 nM, 6 days, normalized to vehicle control, read-out: LymP normalized cell count): 99.4%
activity at 0.005 µM ([1]; dose 5 nM, 6 days, normalized to vehicle control, read-out: LymP normalized cell count): 92.9%
activity at 0.025 µM ([1]; dose 25 nM, 6 days, normalized to vehicle control, read-out: LymP normalized cell count): 38.9%
activity at 0.1 µM ([1]; dose 100 nM, 6 days, normalized to vehicle control, read-out: LymP normalized cell count): 22.1%
activity at 0.5 µM ([1]; dose 500 nM, 6 days, normalized to vehicle control, read-out: LymP normalized cell count): 22.3%
activity at 2.5 µM ([1]; dose 2500 nM, 6 days, normalized to vehicle control, read-out: LymP normalized cell count): 7.46%
Emax ([1]; parameter from QSP model fitting, read-out: Emax_drug_LymP): 0.16%
activity at 0.0002 µM ([2]; dose 0.2 nM, 6 days, normalized to vehicle control, read-out: MonoPs normalized cell count): 98.7%
activity at 0.001 µM ([2]; dose 1 nM, 6 days, normalized to vehicle control, read-out: MonoPs normalized cell count): 99.4%
activity at 0.005 µM ([2]; dose 5 nM, 6 days, normalized to vehicle control, read-out: MonoPs normalized cell count): 80.6%
activity at 0.025 µM ([2]; dose 25 nM, 6 days, normalized to vehicle control, read-out: MonoPs normalized cell count): 27.5%
activity at 0.1 µM ([2]; dose 100 nM, 6 days, normalized to vehicle control, read-out: MonoPs normalized cell count): 8.19%
activity at 0.5 µM ([2]; dose 500 nM, 6 days, normalized to vehicle control, read-out: MonoPs normalized cell count): 1.58%
activity at 2.5 µM ([2]; dose 2500 nM, 6 days, normalized to vehicle control, read-out: MonoPs normalized cell count): 0.0911%
Emax ([2]; parameter from QSP model fitting, read-out: Emax_drug_MonoP): 0.17%
EC50 [3, 6]: 37.3 nM
activity at 0.0002 µM ([3]; dose 0.2 nM, 6 days, normalized to vehicle control, read-out: GMPs normalized cell count): 89.7%
activity at 0.001 µM ([3]; dose 1 nM, 6 days, normalized to vehicle control, read-out: GMPs normalized cell count): 108%
activity at 0.005 µM ([3]; dose 5 nM, 6 days, normalized to vehicle control, read-out: GMPs normalized cell count): 93.6%
activity at 0.025 µM ([3]; dose 25 nM, 6 days, normalized to vehicle control, read-out: GMPs normalized cell count): 50.4%
activity at 0.1 µM ([3]; dose 100 nM, 6 days, normalized to vehicle control, read-out: GMPs normalized cell count): 29.2%
activity at 0.5 µM ([3]; dose 500 nM, 6 days, normalized to vehicle control, read-out: GMPs normalized cell count): 5.84%
activity at 2.5 µM ([3]; dose 2500 nM, 6 days, normalized to vehicle control, read-out: GMPs normalized cell count): 0.643%
viability at 0.0002 µM ([4]; dose 0.2 nM): 99.1%
viability at 0.001 µM ([4]; dose 1 nM): 108%
viability at 0.005 µM ([4]; dose 5 nM): 96%
viability at 0.025 µM ([4]; dose 25 nM): 47.7%
viability at 0.1 µM ([4]; dose 100 nM): 17.4%
viability at 0.5 µM ([4]; dose 500 nM): 3.05%
viability at 2.5 µM ([4]; dose 2500 nM): 0.301%
activity at 0.0002 µM ([5]; dose 0.2 nM): 92%
activity at 0.001 µM ([5]; dose 1 nM): 97.6%
activity at 0.005 µM ([5]; dose 5 nM): 87.1%
activity at 0.025 µM ([5]; dose 25 nM): 46.8%
activity at 0.1 µM ([5]; dose 100 nM): 30.9%
activity at 0.5 µM ([5]; dose 500 nM): 22%
activity at 2.5 µM ([5]; dose 2500 nM): 34%
